{"source": "patent US9173951B2", "about": "“Carbohydrate-based drug delivery polymers and conjugates thereof” (NEKTAR THERAPEUTICS, priority 2008, dated 2015)", "system": "db/db diabetic mice", "test": "Blood glucose levels in db/db diabetic mice after i.p. injection", "assay_type": "in vivo", "protocol": "Blood glucose levels were measured At different time points after dosing.\nStudy Procedure: Animals were acclimated to researcher's handling procedures. Baseline glucose levels were measured prior to drug administration. Outlier animals with glucose level <300 or >600 mg/dL were excluded from the study. Animals were assigned randomly to different groups, as follows:\nAt different time points (1, 2, 4, 8, and 24 hrs), blood was collected by tail clipping, and glucose level was measured using a One Touch® Ultra glucometer (Johnson & Johnson; Life Scan Ltd.)", "data": [{"substance": "dextran-butyrALD-40K-insulin [20b]", "values": [{"measurement": "Glucose level, mean", "setting": "250 ug/mouse ip, 1 hr", "value": "263+39 mg/dL"}, {"measurement": "reduction of glucose level vs time 0", "setting": "250 ug/mouse ip, 1 hr", "value": 47, "unit": "%"}, {"measurement": "Glucose level, mean", "setting": "250 ug/mouse ip, 1 hr, listed as Dex-Ins", "value": 263, "unit": "mg/dL"}, {"measurement": "Glucose level, mean", "setting": "250 ug/mouse ip, 2 hr", "value": "192+36 mg/dL"}, {"measurement": "reduction of glucose level vs time 0", "setting": "250 ug/mouse ip, 2 hr", "value": 61, "unit": "%"}, {"measurement": "Glucose level, mean", "setting": "250 ug/mouse ip, 2 hr, listed as Dex-Ins", "value": 192, "unit": "mg/dL"}, {"measurement": "Glucose level, mean", "setting": "250 ug/mouse ip, 4 hr", "value": 462, "unit": "mg/dL"}, {"measurement": "Glucose level, mean", "setting": "250 ug/mouse ip, 8 hr", "value": 494, "unit": "mg/dL"}, {"measurement": "Glucose level, mean", "setting": "250 ug/mouse ip, 24 hr", "value": 517, "unit": "mg/dL"}, {"measurement": "Glucose level, mean", "setting": "250 ug/mouse ip, time 0 (baseline)", "value": "495+32 mg/dL"}, {"measurement": "Glucose level, mean", "setting": "250 ug/mouse ip, time 0 (baseline), listed as Dex-Ins", "value": 495, "unit": "mg/dL"}]}, {"substance": "insulin", "values": [{"measurement": "Glucose level, mean", "setting": "5 ug/mouse ip, 1 hr", "value": 265, "unit": "mg/dL"}, {"measurement": "reduction of glucose level vs time 0", "setting": "5 ug/mouse ip, 1 hr", "value": 48, "unit": "%"}, {"measurement": "Glucose level, mean", "setting": "5 ug/mouse ip, 2 hr", "value": 352, "unit": "mg/dL"}, {"measurement": "reduction of glucose level vs time 0", "setting": "5 ug/mouse ip, 2 hr", "value": 31, "unit": "%"}, {"measurement": "Glucose level, mean", "setting": "5 ug/mouse ip, 4 hr", "value": 587, "unit": "mg/dL"}, {"measurement": "Glucose level, mean", "setting": "5 ug/mouse ip, 8 hr", "value": 538, "unit": "mg/dL"}, {"measurement": "Glucose level, mean", "setting": "5 ug/mouse ip, 24 hr", "value": 538, "unit": "mg/dL"}, {"measurement": "Glucose level, mean", "setting": "5 ug/mouse ip, time 0 (baseline)", "value": 510, "unit": "mg/dL"}, {"measurement": "Glucose level, mean", "setting": "50 ug/mouse ip, 1 hr", "value": 210, "unit": "mg/dL"}, {"measurement": "reduction of glucose level vs time 0", "setting": "50 ug/mouse ip, 1 hr", "value": 53, "unit": "%"}, {"measurement": "Glucose level, mean", "setting": "50 ug/mouse ip, 2 hr", "value": 150, "unit": "mg/dL"}, {"measurement": "reduction of glucose level vs time 0", "setting": "50 ug/mouse ip, 2 hr", "value": 67, "unit": "%"}, {"measurement": "Glucose level, mean", "setting": "50 ug/mouse ip, 4 hr", "value": 550, "unit": "mg/dL"}, {"measurement": "Glucose level, mean", "setting": "50 ug/mouse ip, 8 hr", "value": 558, "unit": "mg/dL"}, {"measurement": "Glucose level, mean", "setting": "50 ug/mouse ip, 24 hr", "value": 541, "unit": "mg/dL"}, {"measurement": "Glucose level, mean", "setting": "50 ug/mouse ip, time 0 (baseline)", "value": 445, "unit": "mg/dL"}]}]}
